# What was measured:
# [1] = tested on: young, aging and aged rats
# Method: Twenty 2-month old, male Sprague Dawley (SD) rats were housed in a temperature-controlled room (22° C. to 25° C.) with a dark period from 08:00 pm to 08:00 am daily. […] Over 7 days before the training and trial period began, each rat was handled and habituated to the maze and to Kellogg's Froot Loop cereal.
# Each rat underwent a test of one trial, followed by an interval of 10-minutes, followed by another trial, and so on, for a total of 6 trials in one day. In each trial, each rat went through a sample run in the maze, followed by an interval of 15 seconds, followed by a choice run in the maze. In the sample run, the subject rat was forced to go to the left or to the right by the presence of a block, according to a pseudorandom sequence (with an equal number of left turns and right turns, and no more than two consecutive turns in the same direction). As a reward, Froot Loop cereal was available in the food well at the end of the run, regardless of the direction that was taken by virtue of the block. In the choice run, the block that had been present in the preceding sample run was removed, and the rat was allowed to choose to go to the left or to the right. As a reward, Froot Loop cereal was available in the food well at the end of the run, only when the rat had made a “correct choice” by choosing the direction opposite that taken in the preceding sample run. […]
# On the first day (designated day 0) of the feeding of the two groups, as just described, each rat underwent a preliminary test of one trial, followed by an interval of 10 minutes, followed by another trial, and so on, for a total of 4 trials in one day. […] In this preliminary test, the choice accuracy level, or ratio of correct choices made, co, to the number of number of trials in the test, no, was determined for each rat. […]
# Three groups of animals (young, aging, and magnesium-treated aging rats) were used. […] Spatial working memory was assessed using a T-maze non-matching-to-place task. […] Spatial working memory was first assessed on an elevated T-maze. […]
# [2] = magnesium absorption rate in rats (intake versus fecal excretion, ICP-AES); conditions: FIG. 4, Example 5, Mg gluconate in skim milk or water with 5 weight percent lactose, MgCl2 in water
# Method: Fifty 3-month old, male Sprague Dawley (SD) rats were divided into five groups of ten rats. Rats of this age and older are considered adult. Each of the rats was placed in a separate metabolic cage equipped with urine- and feces-collecting wells. All of the rats were maintained in a temperature-controlled room (22° C. to 25° C.) with a dark period from 08:00 pm to 08:00 am daily. From day 1 through day 3, each rat was fed daily 15 g of magnesium-free food and de-ionized water. […] The medium was skim milk for Composition 1 and Group 1, milk prepared from powdered milk, by diluting the powdered milk with water to obtain a composition like that of skim milk, for Composition 2 and Group 2, 1% milk cream in water for Composition 3 and Group 3, water comprising 5 weight percent lactose for Composition 4 and Group 4, and water for the Control Composition and Control Group. […]
# From day 4 through day 10, urine from each rat was collected daily. The collected urine from each rat was then pooled together and the total volume of the pooled urine from each rat was recorded. The pooled urine from each rat, in an amount of […], was analyzed for magnesium content using an inductively coupled plasma-atomic emission spectrometer (ICP-AES). […] The pooled feces from each rat, in an amount of 0.5 g, were analyzed for magnesium content using an ICP-AES. […]
# [3] = tested on: rats; experiment: novel object recognition test in rats; assay type: in vivo, rat
# Method: In this example, the effect of magnesium supplementation on recognition memory was tested. Three groups of rats were used in these experiments: 1) young rats (three months old); aging rats (12-14 months old), and; 3) magnesium-treated aging rats (12-14 months old, diet supplemented with 6 mg/kg MgCl2 from 8 months of age). We used experimentally naive, female, Sprague-Dawley young […], aging (12-14 month old) and […] rats (Charles River) at the beginning of the behavior experiments. They were housed two per cage with continuous access to food and water under a 12:12 light-dark cycle, with light onset at 8:00 a.m. […] All experiments involving animals were approved by the Massachusetts Institute of Technology's and Tsinghua University Committees on Animal Care.
# The three groups of rats were tested for recognition memory using an object recognition test with a single exposure to the object during training. The task is based on the natural tendency of rodents to explore new objects and tests the animals' memory capacity for distinguishing novel versus familiar objects.
# Briefly, the rats were first individually habituated to the personnel and then to open-field arena during 2 weeks. […] The retention intervals were 10 min and 24 hours. Objects were cleaned thoroughly between trials with 20% ethanol solution to ensure the absence of olfactory cues. The particular objects for a given trial were randomly determined, but each object was used for only one trial per rat. Memory of the familiar object is associated with increased exploration of the new object and an exploration index (% correct) is calculated as new object inspection time/30.
# In this example, the effect of magnesium supplementation on memory consolidation was studied. […]
# Briefly, the rats were first individually habituated to the personnel and then to open-field arena during 2 weeks. […] The particular objects for a given trial were randomly determined, but each object was used for only one trial per rat. […]
# [4] = tested on: diabetic patients; conditions: nearly 1 g of magnesium daily for 1 month; cited from earlier work
# [5] = tested on: mice genetically altered to present symptoms of Alzheimer's disease (AD); experiment: modified Morris water maze test in AD mice; assay type: in vivo, mouse; conditions: AD mice aged 13 months, FIG. 16
# Method: Another group, the control group, of 10 mice that were genetically altered to present symptoms of AD were fed a Control Diet, a diet of normal solid food and water, for 30 days.
# The pool used was a pool of water in a circular metal tank (150 cm in diameter and 50 cm in depth) having a water height of 30 cm and a water temperature that was maintained at ˜22° C. The pool was placed in a moderately lit area and surrounded by a black curtain. An acrylic platform (15 cm in diameter) was placed 2 cm below the surface of the water in the middle of one quadrant of the pool, equidistant from the center and the edge of the pool. Outside the pool, a cue was placed so as to be visible to a mouse in the maze, allowing a mouse to use it as a landmark for spatial orientation. The cue remained unchanged throughout the test period.
# On the first day of the training and testing period, the water in the pool was transparent, such that the platform was visible. Each mouse was trained to swim towards the platform and to stand on the platform so as not to be submerged in the pool. […] The amount of time the mouse took to find the platform, referred to as “escape latency,” was recorded for each trial.
# On the second day of the training and testing period, a small quantity of milk was added to the water in the pool, such that the pool was opaque and the platform was no longer visible. […]
# [6] = brain (brainstem) magnesium concentration in AD mice, ICP-OES; assay type: in vivo, mouse; conditions: AD mice on magnesium diet from 5 month to 21 month of age, FIG. 26A
# [7] = tested on: AD mice; experiment: physical motility (swimming speed) during water maze test; assay type: in vivo, mouse; conditions: 7 months and 15 months of treatment, FIG. 21
# Method: The swimming speed of each mice is calculated from off-analysis.
compound,measurement,setting,value
"[Cl-].[Cl-].[Mg+2] [MgCl2, magnesium chloride]",asymptotic choice accuracy level after 8 days of training,"[1]; all three groups (young, aging, magnesium-treated aging rats)",~94%
same,"learning in non-matching-to-place task, 15 sec delay","[1]; magnesium-treated aging rats versus aging rats, p<0.05",performed significantly better from their first trials
same,spatial working memory with increased delay between sample and choice trials,"[1]; magnesium-treated aging rats, p<0.05",significantly enhanced the performance of the aging rats at 2 and 5 min delays
same,magnesium absorption rate of the higher dosage compositions (magnesium loading capacity),[2],less desirable
same,"novel object exploration preference, 10 minute retention interval","[3]; aging rats (12-14 months old), 6 mg/kg MgCl2 from 8 months of age, single exposure training, P<0.0001",preferentially explored the novel object to the same extent as young rats
same,ability to distinguish novel versus familiar objects after 24 hours,"[3]; aging rats, single exposure training, all groups",lose there ability to distinguish novel versus familiar objects
same,"preference for the novel object, 24-hour retention interval after spaced training","[3]; two training sessions separated by 10 minutes, magnesium-treated aging rats",retained a high level of preference
[O]=[Mg] [magnesium oxide],increase of serum magnesium level,[4],about 10%
same,metabolic control,[4],only minor improvement in metabolic control
CC12CC3CC(C)(C1)CC(N)(C3)C2 [memantine],reduction of the effects of AD on learning capacity,[5],better at reducing the effects of AD on learning capacity than aricept
magnesium,relation of magnesium intake to brain magnesium,[6],linearly correlated to the amount of brain magnesium
same,mobility during the water maze test,[7],greatly increased mobility
magnesium gluconate,magnesium absorption rate of the higher dosage compositions (magnesium loading capacity),[2],suitably close to those associated with the lower dosage compositions

# Source: patent publication US8178118B2, “Magnesium compositions and uses thereof for cognitive function” (Magceutics, Inc., priority 2007, dated 2012)
